Patent US20080293774A1, “Treatment of the Symptoms of Bladder Irritation” (UROGENE, priority 2005, published 2008)

Legend:
[1] = test system: rhythmic reflex contractions of the bladder; experiment: complete bladder-outlet obstruction (isovolumetric) model of overactive bladder in the rat; type: in vivo, female Wistar rats; settings: i.v.; for maximum intravesical pressure: all doses tested (HP183 0.3, 1, 3 mg/kg; HP184 1, 3, 10 mg/kg; HP749 1.6, 3.5, 10.5 mg/kg)
Text: The compounds of Table 1 have been evaluated in a conventional animal model of overactive bladder: the complete bladder-outlet obstruction model in the rat, referred to as “isovolumetric” model (K. Sugaya, Y. Ogawa, O, Nishizawa, W C De Groat, Decrease in intravesical saline volume during isovolumetric cystometry in the rat, Neurourol. Urodyn, 1997, 16:125-132). In this model, rhythmic reflex contractions of the bladder are induced in female Wistar rats in which the urethra has been ligatured.
The rats are anaesthetized and implanted with a jugular catheter for the intravenous administration of the compounds. A transurethral catheter is introduced into the bladder, through the bladder dome, so as to allow the infusion of a saline solution and measurement of the intravesical pressure. The urethra is ligatured in order to close off the bladder.
The bladder is infused (50 μl/min) via the transurethral catheter with a saline solution until uninhibited rhythmic contractions appear. The infusion is then stopped and the intravesical pressure is measured for a period of 60 min preceding the injection of the study compounds. The compounds to be studied are then injected via the jugular catheter, and the intravesical pressure is recorded for a period of 60 min. The intravenous administration of the compounds during this test limits the metabolization of HP749 and of HP184 to HP748 and HP183, respectively. The animals are sacrificed at the end of the experiment by means of an overdose of pentobarbital. A scheme of the experiment is given below.
The data from the experiment are analysed with the ELPHY software (a free version of which is accessible at the following address: http://www.unic.cnrs-gif.fr/software/software.htm). The parameters analysed are as follows: • Maximum intravesical pressure (MP, expressed in mmHg) • Threshold pressure (ThP, expressed in mmHg) compared with the carrier (FIG. 2B).

bladder contractions = settings: rats suffering from bladder irritation; cited from earlier work
[2] = human; cited from earlier work
[3] = all doses tested (HP183 0.3, 1, 3 mg/kg; HP184 1, 3, 10 mg/kg), 60 min recording, compared with the carrier
[4] = 60 min recording, compared with the carrier

## Cc1cn(Nc2ccncc2F)c2ccccc12 [HP183, N-(3-fluoro-4-pyridinyl)-3-methyl-1H-indol-1-amine]
[1]; [3]
  frequency of rhythmic isovolumetric contractions: no statistically significant effect
[1]; [4]
  maximum intravesical pressure: no statistically significant effect

## CCCN(c1ccncc1F)n1cc(C)c2ccccc21 [HP184, N-(3-fluoro-4-pyridinyl)-N-propyl-3-methyl-1H-indol-1-amine]
[1]; [3]
  frequency of rhythmic isovolumetric contractions: no statistically significant effect
[1]; [4]
  maximum intravesical pressure: no statistically significant effect
Bladder contractions
  frequency of bladder contractions related to bladder irritation: slightly decreasing

## c1ccc2c(c1)ccn2Nc1ccncc1 [HP748, N-(4-pyridinyl)-1H-indol-1-amine]
[1]; from the first dose of 0.3 mg/kg, dose-dependent
  frequency of bladder contractions: considerably and statistically significantly decreased

## CCCN(c1ccncc1)n1ccc2ccccc21 [HP749, N-propyl-N-(4-pyridinyl)-1H-indol-1-amine]
[1]; [4]
  maximum intravesical pressure: did not demonstrate any effect
[1]; highest dose (10.5 mg/kg)
  frequency of rhythmic isovolumetric contractions: increasing
[1]; lowest dose (HP749 1.6 mg/kg)
  frequency of rhythmic isovolumetric contractions: decreasing
[2]
  metabolite formed by biotransformation: metabolized in human to compound (I)
